Experimental data taken from patent US8288374B2, “Medicinal composition containing benzo[a]phenoxazine compound as the active ingredient for prevention or treatment of protozoal disease” (Hoshi University, priority 2008, dated 2012).
Values after ≈ are worked out from the molar mass of the structure shown. Like-named read-outs stand apart in the source and are kept apart here.

Assays:
Plasmodium falciparum K1 = assay: Chloroquine resistant-Plasmodium falciparum growth inhibition screening test; format: cell-based; settings: for Selective toxicity: EC50 against rat L6 cells / EC50 against P. falciparum K1; for EC50: Plasmodium falciparum, Table 2, unit inferred, chloroquine-resistant K1 strain, read-out: P. falciparum K1
Experimental: In the present experiment, protozoa of plasmodium falsiparum K1 strain was used. RPMI-1640 medium sterilized with a filter to which human serum was added to be 5%, was used in the experiment. Malarial parasites were cultured under 3% O2 concentration, 4% CO2 concentration, 93% N2 concentration, and at a temperature of 37° C.
The compounds of the present invention to be used in the present test and the positive control drug (chloroquine) were dissolved in DMSO to make a test solution of a predetermined concentration. Cultured malaria parasite infected-erythrocytes were collected by centrifugation, and diluted with non-infected erythrocyte so that the early infection rate was 0.15%. Hematocrit level at that time was 2.5%.
200 μL of malaria infected solution was added to wells of a 96-well culture plate, and adjusted by adding a test solution containing drug of a predetermined concentration or a drug-free DMSO. Test solutions were taken by duplicates.
[…] […] Radiation intensity was measured with a beta plate liquid scintillation counter (Wallac), and malarial parasite infection rates of the test solution added group and the control group were calculated.
Growth inhibition rate (%)={1−(b−a)/(c−a)}×100 • a: early infection rate • b: infection rate when test solution was added • c: infection rate of the control 3. Growth Inhibition Test of Rat L6 Cells
Antimalarial activity of a sample was estimated from EC50 values of the sample against chloroquine resistant-Plasmodium falciparum and rat L6 cells. […] It means that the larger the value of the selection toxity, the less the risk of the side effect is. Chemotherapy index=(EC50 value of a sample against rat L6 cells)/(EC50 value of a sample against chloroquine resistant-Plasmodium falsiparum)

[1] = tested on: Plasmodium berghei NK65 strain; assay: Cure test by oral administration to mice infected with malaria; format: in vivo; settings: for inhibition in vivo at 100 mg/kg: Plasmodium berghei, infected ICR mice, suppression vs control; for inhibition in vivo at 100 mg/kg / Days of survival: oral, 1 dose, 100 mg/kg; for Days of survival: mean days to death minus that of control mice; for Effectiveness in the in vivo malaria test, in words: oral administration to mice infected with rodent malaria
Experimental: In this experiment, rodent malaria parasites (the Plasmodium berghei NK65 strain) were used.
The infected blood to be used was subcultured in ICR female SPF mice infected by intraperitoneal or tail vein administration at 4 to 6 weeks old (20 to 26 g). […] Thereafter, based on the number of red cells (cells/ml) and the rate of infection by the protozoans, the blood was diluted with phys'iological saline such that a density of […] malaria parasites/1 ml dose was attained. This was used for infection of uninfected mice (ICR female mice, 5 weeks old) in an amount of 0.2 ml/20 g body weight, through the tail vein (Day-0). The compound used in the test was dissolved in 10% DMSO solution (a mixture of 1 ml of DMSO and 9 ml of 5% glucose solution).
Each group contained 4 mice, and the compound was orally administered to the mice 24 hours after their infection with malaria (Day-1), in an amount calculated such that 100 mg of the compound was administered per 1 kg of the body weight of a mouse. On the other hand, in terms of cases in which the amount was calculated such that 30 mg of the compound was administered per 1 kg of the body weight of a mouse, the oral administration was carried out a total of three times, that is, 24 hours (Day-1), 48 hours (Day-2) and 72 hours (Day-3) after the infection of malaria.
Blood was collected from the tails of each mouse 96 hours (Day-4) and 144 hours (Day-6) after the infection with malaria, and thin blood films were prepared. Under the microscope, the numbers of infection of malaria parasites in the group to which the compound was administered and the control group (to which the compound was not administered) were measured, and the rates of infection with malaria parasites (Parasitemia) were calculated.
From the rate of infection with malaria parasites calculated as above, the cure rate (Suppression) in the case of administration of the drug was calculated according to the following equation. Cure rate: Suppression (%)=(B−A)/B×100
A: Rate of infection with the protozoans in a mouse to which the present test compound was administered
B: Rate of infection with the parasites in a control mouse (to which the compound was not administered) Days of survival: MSD (day)=C−D
C: the average number of days from the date of infection with malaria to the date of death in the mice to which the present test compound was administered
D: The average number of days from the date of infection with malaria to the date of death in the 4 individuals of control mice (to which the compound was not administered)
Further, by observation of changes in the body weight, hair glossiness and the like of each mouse, side effects such as acute toxicity due to administration of the compound were evaluated.

[2] = tested on: Leishmania donovani (MHOM/ET/67/L82 strain); assay: Leishmania protozoa growth inhibition screening test; format: cell-based
Experimental: In the present experiment, Leishmania donovani (MHOM/ET/67/L82 strain) was used. Protozoa was subcultured in Syrian Golden hamster, from which an amastigote was obtained. In the experiment, SM medium supplemented with 10% heat-treated bovine fetal serum was used, which was adjusted to pH 5.4, and cultured in an atmosphere of 5% CO2 concentration, at 37° C.
The compounds of the present invention to be used in the present test and the positive control drug (miltefosine) were dissolved in DMSO to make a test solution of a predetermined concentration.
After adding a medium containing a predetermined number of protozoa to wells of a 96-well culture'plate and pre-treating, concentration of the amastigote was measured with CASY cell analysis system (Scharfe, Germany). Then, test solution containing a drug of a predetermined concentration or a drug-free DMSO was added. Test solutions were taken by duplicates.
After culturing the culture plate for 72 hours in an incubator, growth inhibition activity was tested. Test was conducted as follows. 10 μL of Alamar Blue aqueous solution was added to each well, and the resultant was further cultured for 2 hours. Next, the culture plate was placed on a fluorescent micro-plate reader (Spectramax Gemeni XS; US Molecular Device), radiated at an excited wavelength of 536 nm. Fluorescent intensity was measured at 588 nm, and infection rate of leishmania protozoa of the test solution added group and control was calculated.
Growth inhibition rate (%)={1−(b−a)/(c−a)}×100 • a: early infection rate • b: infection rate when test solution was added • c: infection rate of the control

[3] = 96 h, read-out: Cure rate (%) Day-4
[4] = 144 h, read-out: Cure rate (%) Day-6
[5] = Table 6, unit inferred, read-out: Leishmania donovani

Structure (SMILES)	Selective toxicity (Plasmodium falciparum K1)	inhibition in vivo at 100 mg/kg [1, 3]	inhibition in vivo at 100 mg/kg [1, 4]	Days of survival [1]	EC50 ([2]; Leishmania donovani, Table 5, amastigotes, 72 hours, Alamar Blue, read-out: 50% Growth inhibition concentration Leishmania donovani)	EC50 (Plasmodium falciparum K1)	Effectiveness in the in vivo malaria test, in words [1]	EC50 [2, 5]
CCN(CC)c1ccc2nc3c4ccccc4c(=Nc4ccc5ccccc5n4)cc-3oc2c1 [Compound 1H, N,N-Diethyl-5-(quinolin-2-ylimino)-5H-benzo[a]phenoxazin-9-amine]	2513	81%	71%	4.3 days	1.25 µg/mL (≈ 2.81 µM)	–	–	–
CCN(CCNS(C)(=O)=O)c1cc(C)c2nc3c4ccccc4c(=Nc4ccncc4)cc-3oc2c1 [Compound 1R, N-Ethyl-N-(2-methansulfonamidylethyl)-11-methyl-5-(pyridine-4-ylimino)-5H-benzo[a]phenoxazin-9-amine]	885	100%	95.7%	15.7 days	–	9 ng/mL (≈ 0.0179 µM)	excellent cure effects	3.92 µg/mL (≈ 7.81 µM)
CCN(CCNS(C)(=O)=O)c1cc(C)c2nc3c4ccccc4c(=Nc4ccccn4)cc-3oc2c1 [Compound 1S, N-Ethyl-N-(2-methansulfonamidylethyl)-11-methyl-5-(pyridine-2-ylimino)-5H-benzo[a]phenoxazin-9-amine]	43	100%	100%	11.3 days	–	7 ng/mL (≈ 0.014 µM)	excellent cure effects	2.09 µg/mL (≈ 4.17 µM)
